Laboratory results published in patent publication EP0311107A2, “Anti-HIV active 3'-fluoro-purine-2',3'-dideoxyribosides” (priority 1987, dated 1989).
pEC50, pIC50: −log10 of the molar value. Read-outs that look alike come from different tables or passages of the source. Marks after values point to notes of the source that are not given here.

Legend:
[1] = molecular target: T1, beef intestine adenosine deaminase (ADA) (Bos taurus, UniProt P56658); details: data taken from Balzarini, J. et al (1987c); cited from earlier work
T1 construct: Kinetic properties of beef intestine adenosine deaminase for 2,6-diaminopurine 2′,3′-dideoxynucleoside analogues; purchased Boehringer Mannheim, Mannheim, West Germany; host or cells: beef intestine (tissue-derived enzyme)
T1 sequence (P56658 1-363): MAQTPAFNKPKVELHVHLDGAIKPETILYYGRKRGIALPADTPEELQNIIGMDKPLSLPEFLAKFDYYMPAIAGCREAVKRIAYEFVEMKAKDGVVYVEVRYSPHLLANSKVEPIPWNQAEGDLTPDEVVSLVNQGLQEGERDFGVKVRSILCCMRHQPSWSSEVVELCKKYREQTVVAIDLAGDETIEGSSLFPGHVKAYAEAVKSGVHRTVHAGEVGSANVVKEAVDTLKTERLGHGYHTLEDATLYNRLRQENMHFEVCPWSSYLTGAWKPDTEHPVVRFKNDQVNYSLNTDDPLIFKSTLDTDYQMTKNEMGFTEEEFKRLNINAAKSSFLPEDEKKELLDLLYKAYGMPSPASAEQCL

[2] = test system: HIV (HTLV-IIIB); test: HIV-induced cytopathogenicity in MT4 cells (viable cell count by trypan blue exclusion after 5 days); type: cell-based; details: for pEC50: Human immunodeficiency virus 1, IIIB; for HIV-induced cytopathogenicity in MT4 cells S.I.: selectivity index, ratio of 50% cytotoxic dose to 50% antivirally effective dose, 7200 min; for anti-HIV activity: HIV-induced cytopathogenicity in MT4 cells, result in words
Procedure: (§1) For the determination of the cytopathic effect of HIV in human T-lymphocyte MT4 cells, MT4 cells, subcultured one day before the start of the experiment, were adjusted at 5 x 10⁵ cells/ml and infected with HIV (HTLV-IIIB) at 100 CCID₅₀/ml. Then, 100 µl of the infected cell suspension was brought into wells of a microtiter tray containing 100 µl of various dilutions of the test compounds. After 5 days incubation at 37°C, the number of viable cells was recorded microscopically in a hematocytometer by trypan blue exclusion.
(§2) A series of novel 2,6-diaminopurine and guanine 2′,3′-dideoxynucleoside analogues in which the 2′,3′-dideoxyribose moiety is substituted by a 3′-fluoro group, or replaced by arabinose or 2′-deoxyxylose were evaluated for their effect on the transformation of C3H mouse embryo cells by Moloney murine sarcoma virus (MSV) (Table 1) and the cytopathogenicity induced by HIV in human T4 lymphocyte MT4 cells (Table 1, Fig. 2).

[3] = test system: H9; test: Cytostatic effect against H9 cells; type: cell-based; details: Homo sapiens, read-out: Inhibitory dose-50 H9
Procedure: (§3) The cultivation of Raji, Molt/4F, CEM, H9, HUT-78 and MT4 cells has been described in Balzarini, J, et al, Biochem. Biophys. Res. Commun. 136:64-71 (1986b) and Pauwels, R. et al, J. Virol. Methods, 16:171-185 (1987).
(§4) The cytostatic effects of the compounds listed in Table 1 were examined against several human B-lymphoblast Raji, T-lymphoblast Molt/4F and T-lymphocyte CEM, H9 and MT4 cell lines (Table 2). […] In no case is the ID₅₀ of the compounds for tumor cell proliferation lower than 60 µM. FddGuo is slightly more cytostatic than FddDAPR (ID₅₀ : 190 to 228 µM, and 233 to >1000 µM, respectively). XylodDAPR and araDAPR are devoid of any anti-cellular activity, even when tested at a concentration as high as 1000 µM.

[4] = test system: T-lymphocyte CEM; test: Cytostatic effect against CEM cells; type: cell-based; details: Homo sapiens, CCRF-CEM, read-out: Inhibitory dose-50 CEM
Procedure: as §3, §4

[5] = test system: HIV; test: Inhibition of HIV antigen expression in infected H9 or HUT-78 cells (indirect immunofluorescence, laser flow cytofluorography); type: cell-based; details: Human immunodeficiency virus 1, HuT78; H9 and HUT-78 cells; data not shown; read-out: concentration achieving 50% inhibition of HIV-induced antigen expression
From the text: The inhibitory effects of the test compounds on HIV antigen expression in infected H9 or HUT-78 cells were determined at day 8 and 14, respectively after infection, by indirect immunofluorescence and laser flow cytofluorography using a polyclonal antibody as probe, as previously described (Pauwels, R. et al, (1987)).
To confirm our anti-HIV data obtained in the MT4 cell model, we also evaluated the 3′-fluorinated ddDAPR derivatives in two other human T4 lymphocyte cell lines (H9 and HUT-78) for their inhibitory effect on viral antigen expression (data not shown). In these experiments, FddDAPR achieves 50% inhibition of HIV-induced antigen expression at a concentration range of 0.05 - 1.0 µM. This concentration range is lower than that required to inhibit HIV-induced cytopathogenicity in MT4 cells.

[6] = test system: MT4; test: Cytostatic effect against MT4 cells; type: cell-based; details: Homo sapiens, read-out: Inhibitory dose-50 MT4
[7] = test system: B-lymphoblast Raji; test: Cytostatic effect against Raji cells; type: cell-based; details: Homo sapiens, read-out: Inhibitory dose-50 Raji
Procedure: as §3, §4

[8] = in vitro; type: cell-based; details: human, mt4 cells
Procedure: as §1
Its anti-HIV activity is also higher than that found for its corresponding 2,6-diaminopurine derivative FddDAPR.

[9] = test system: Moloney murine sarcoma virus (MSV); test: MSV-induced C3H cell transformation; type: cell-based; details: for pEC50: Moloney murine sarcoma virus, C3H; for MSV-induced C3H cell transformation S.I.: selectivity index, ratio of 50% cytotoxic dose to 50% antivirally effective dose
Procedure: For transformation of C3H mouse embryo cells by Molo ney murine sarcoma virus (MSV), confluent monolayers of C3H cells in 1 ml wells of Tissue Culture Cluster plates were infected wiht 150 foci-forming units of MSV during 90 min, whereafter medium was replaced by 1 ml fresh culture medium containing different concentrations of test compound. After 6-7 days incubation at 37°C, transformation of the cell cultures was monitored microscopically.
as §2

[10] = test system: T-lymphoblast Molt/4F; test: Cytostatic effect against Molt/4F cells; type: cell-based; details: Homo sapiens, read-out: Inhibitory dose-50 Molt/4F
From the text: The cultivation of Raji, Molt/4F, CEM, H9, HUT-78 and MT4 cells has been described in Balzarini, J, et al, Biochem. Biophys. Res. Commun.
The cytostatic effects of the compounds listed in Table 1 were examined against several human B-lymphoblast Raji, T-lymphoblast Molt/4F and T-lymphocyte CEM, H9 and MT4 cell lines (Table 2).

[11] = test system: T-lymphocyte CEM; test: Cytostatic effect against CEM cells; type: cell-based; details: Homo sapiens, read-out: Inhibitory dose-50 CEM
[12] = test system: MT4; test: Cytostatic effect against MT4 cells; type: cell-based; details: Homo sapiens, read-out: Inhibitory dose-50 MT4; remark: listed apart in the source
Procedure: as §3, §4

[13] = molecular target: T1, beef intestine adenosine deaminase (ADA); test: Substrate kinetics for deamination by adenosine deaminase; type: biochemical
From the text: All four ddDAPR analogues were examined for their susceptibility to deamination by beef intestine adenosine de aminase (ADA).

[14] = in vitro; type: cell-based; details: mouse, c3h cells
[15] = test system: human B-lymphoblast Raji, T-lymphoblast Molt/4F and T-lymphocyte CEM, H9 and MT4 cell lines; test: Cytostatic effects, summary over the human B- and T-cell lines; type: cell-based; details: range over the cell lines, read-out: ID₅₀ for tumor cell proliferation
Procedure: as §3, §4

[16] = test system: HIV (HTLV-IIIB); details: earlier report, Balzarini et al (1987b); read-out: 50% effective dose (ED₅₀), inhibition of HIV-replication in MT4 cells; cited from earlier work
[17] = MT4, 120 h, MT4 cells, 5 days at 37°C, read-out: HIV-induced cytopathogenicity in MT4 cells ED₅₀
[18] = MT4, presence of 10 µM DCF (2′-deoxycoformycin), read-out: Effective dose-50 HIV-induced cytopathogenicity in MT4 cells
[19] = MT4, without DCF (Table 3), read-out: Effective dose-50 HIV-induced cytopathogenicity in MT4 cells
[20] = MT4, presence of DCF (10 µM preincubation)
[21] = C3H cells, 6-7 days at 37°C, read-out: MSV-induced C3H cell transformation ED₅₀
[22] = presence of 10 µM DCF (2′-deoxycoformycin), read-out: Effective dose-50 MSV-induced C3H cell transformation
[23] = without DCF (Table 3), read-out: Effective dose-50 MSV-induced C3H cell transformation
[24] = presence of DCF (10 µM preincubation)

SMILES: Nc1ncnc2c1ncn2[C@@H]1O[C@H](CO)[C@@H](O)[C@H]1O [Ado, adenosine]
- Vmax [1]: 287^a µmole/mg proten/min

SMILES: Nc1nc(N)c2ncn([C@H]3C[C@H](F)[C@@H](CO)O3)c2n1 [FddDAPR, 3′-fluoro-2,6-diaminopurine 2′,3′-dideoxyriboside]
- pEC50 [2, 17]: 5.35
- pEC50 [2, 18]: 4.41
- pEC50 [2, 19]: 5.35
- HIV-induced cytopathogenicity in MT4 cells S.I. [2]: 80
- pIC50 [3]: 3.42
- pIC50 [4]: 3.63
- pEC50 [5]: 6.00 to 7.30
- pIC50 [6, 20]: 3.28
- pIC50 ([6]; MT4, without DCF (Table 4)): 3.33
- pIC50 [7]: 3.12
- CC50 at 120 h [8]: 360 µM
- pEC50 [9, 21]: 4.55
- pEC50 [9, 22]: 4.06
- pEC50 [9, 23]: 4.51
- MSV-induced C3H cell transformation S.I. [9]: > 15
- pIC50 ([10]; Molt/4F): 3.37
- pIC50 [10, 24]: 3.06
- pIC50 ([10]; without DCF (Table 4)): 3.45
- pIC50 [11, 24]: 3.13
- pIC50 ([11]; without DCF (Table 4)): 3.62
- pIC50 [12]: 3.47
- Vmax [13]: 31 µmole/mg proten/min
- CC50 [14]: > 400 µM

SMILES: Nc1nc2c(ncn2[C@H]2C[C@H](F)[C@@H](CO)O2)c(=O)[nH]1 [FddGuo, 3′-fluoro-2′,3′-dideoxyguanosine]
- pEC50 [2, 17]: 5.62
- HIV-induced cytopathogenicity in MT4 cells S.I. [2]: 96
- pIC50 [3]: 3.71
- pIC50 [4]: 3.92
- pIC50 [15]: 3.64 to 3.72
- pIC50 [7]: 3.97
- CC50 at 120 h [8]: 231 µM
- pEC50 [9, 21]: 4.92
- MSV-induced C3H cell transformation S.I. [9]: > 23
- pIC50 ([10]; Molt/4F): 3.64
- pIC50 [12]: 3.71
- CC50 [14]: > 400 µM

SMILES: Nc1nc(N)c2ncn([C@H]3C[C@@H](O)[C@@H](CO)O3)c2n1 [XylodDAPR]
- anti-HIV activity [2]: devoid of any anti-HIV activity
- pEC50 [2, 17]: < 3.90
- pIC50 [3]: < 3.00
- pIC50 [4]: < 3.00
- pIC50 [7]: < 3.00
- CC50 at 120 h [8]: > 625 µM
- pEC50 [9, 21]: < 3.40
- pIC50 ([10]; Molt/4F): < 3.00
- pIC50 [12]: < 3.00
- Vmax [13]: 3.7 µmole/mg proten/min
- CC50 [14]: > 400 µM

SMILES: Nc1nc(N)c2ncn([C@@H]3O[C@H](CO)[C@@H](O)[C@@H]3O)c2n1 [araDAPR, 9-β-D-arabinofuranosyl 2,6-diaminopurine]
- anti-HIV activity [2]: devoid of any anti-HIV activity
- pEC50 [2, 17]: < 3.90
- pIC50 [3]: < 3.00
- pIC50 [4]: < 3.00
- pIC50 [7]: < 3.00
- CC50 at 120 h [8]: > 625 µM
- pEC50 [9, 21]: < 3.40
- pIC50 ([10]; Molt/4F): < 3.00
- pIC50 [12]: < 3.00
- Km [13]: 83 µM
- Vmax [13]: 5.9 µmole/mg proten/min
- CC50 [14]: > 400 µM

SMILES: Nc1ncnc2c1ncn2[C@H]1CC[C@@H](CO)O1 [ddAdo, 2′,3′-dideoxyadenosine]
- Vmax [1]: 262^a µmole/mg proten/min

SMILES: Nc1nc(N)c2ncn([C@H]3CC[C@@H](CO)O3)c2n1 [ddDAPR, 2,6-Diamino-9-(2,3-dideoxy-β-D-glycero-pentofuranosyl)purine]
- pEC50 [2, 17]: 5.42
- pEC50 [2, 18]: 4.89
- pEC50 [2, 19]: 5.42
- HIV-induced cytopathogenicity in MT4 cells S.I. [2]: 106
- Km [1]: 29 µM
- Vmax [1]: 8.2^a µmole/mg proten/min
- pIC50 [3]: 3.33
- pIC50 [4]: 3.90
- pIC50 [6, 20]: < 3.00
- pIC50 ([6]; MT4, without DCF (Table 4)): < 3.00
- pIC50 [7]: 3.49
- CC50 at 120 h [8]: 404 µM
- pEC50 [9, 21]: 4.72
- pEC50 [9, 22]: 4.08
- pEC50 [9, 23]: 4.64
- MSV-induced C3H cell transformation S.I. [9]: ≧ 11
- pIC50 [10, 24]: < 3.00
- pIC50 ([10]; without DCF (Table 4)): 3.66
- pIC50 [11, 24]: < 3.00
- pIC50 ([11]; without DCF (Table 4)): 3.89
- pIC50 [12]: 3.19
- Vmax relative to that observed for Ado [13]: 3%
- pEC50 [16]: 5.44 to 5.60
- CC50 [14]: ≥ 200 µM

SMILES: Nc1nc2c(ncn2[C@H]2CC[C@@H](CO)O2)c(=O)[nH]1 [ddGuo, 2′,3′-Dideoxyguanosine]
- pEC50 [2, 17]: 5.12
- HIV-induced cytopathogenicity in MT4 cells S.I. [2]: 64
- pIC50 [3]: 3.27
- pIC50 [4]: 3.85
- pIC50 [7]: 3.04
- CC50 at 120 h [8]: 486 µM
- pEC50 [9, 21]: 4.14
- MSV-induced C3H cell transformation S.I. [9]: > 5.5
- pIC50 ([10]; Molt/4F): 3.42
- pIC50 [12]: 3.03
- CC50 [14]: > 400 µM
